Data published in PubChem BioAssay AID1918937 (Molecular Pharmacology Branch, DTP, NCI, 2023).

Test system: 521955-158-R2-J5-PDC complex spheroid viability
Assay: Anticancer human tumor 521955-158-R2-J5-PDC patient-derived pancreatic carcinoma cell line growth inhibition
Settings: for IC50: curve of first compound; for viability, T/C: stronger effect = lower value
Outline: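 Multicellular complex spheroids of tumor cells with human endothelial cells (HUVEC) and mesenchymal stem cells; the LSD1 inhibitor iadademstat was combined with standard-of-care or investigational agents. Top concentration at or near clinical Cmax, half-log dilutions; final DMSO ≤0.25%.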

[1] = second compound 0.1 µM, first compound 0.00949 µM
[2] = second compound 0.1 µM, first compound 0.03 µM
[3] = second compound 0.1 µM, first compound 0.0949 µM
[4] = second compound 0.1 µM, first compound 0.3 µM
[5] = second compound 0.1 µM, first compound 0.949 µM
[6] = second compound 0.1 µM, first compound 3 µM
[7] = second compound 0.316 µM, first compound 0.00949 µM
[8] = second compound 0.316 µM, first compound 0.03 µM
[9] = second compound 0.316 µM, first compound 0.0949 µM
[10] = second compound 0.316 µM, first compound 0.3 µM
[11] = second compound 0.316 µM, first compound 0.949 µM
[12] = second compound 0.316 µM, first compound 3 µM
[13] = second compound 1 µM, first compound 0.00949 µM
[14] = second compound 1 µM, first compound 0.03 µM
[15] = second compound 1 µM, first compound 0.0949 µM
[16] = second compound 1 µM, first compound 0.3 µM
[17] = second compound 1 µM, first compound 0.949 µM
[18] = second compound 1 µM, first compound 3 µM
[19] = second compound 3.16 µM, first compound 0.00949 µM
[20] = second compound 3.16 µM, first compound 0.03 µM
[21] = second compound 3.16 µM, first compound 0.0949 µM
[22] = second compound 3.16 µM, first compound 0.3 µM
[23] = second compound 3.16 µM, first compound 0.949 µM
[24] = second compound 3.16 µM, first compound 3 µM
[25] = second compound 10 µM, first compound 0.00949 µM
[26] = second compound 10 µM, first compound 0.03 µM
[27] = second compound 10 µM, first compound 0.0949 µM
[28] = second compound 10 µM, first compound 0.3 µM
[29] = second compound 10 µM, first compound 0.949 µM
[30] = second compound 10 µM, first compound 3 µM
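Note: spheroids exposed to agents for seven days.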
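Throughout, for viability, T/C: percent of DMSO vehicle control luminescence viability.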

NS(=O)(=O)OCC1CC(n2ccc3c(NC4CCc5ccccc54)ncnc32)CC1O (stereo not given) + NC1CCC(NC2CC2c2ccccc2)CC1 was tested. Which IC50 (second compound 0.1 µM) did it give?
The IC50 was 0.0281 µM.

And the IC50 (second compound 0.316 µM)?
Its IC50 is 0.0318 µM.

And the IC50 (second compound 1 µM)?
The IC50 was 0.0263 µM.

What about the IC50 (second compound 3.16 µM) of the same compound?
Its IC50 is 0.0258 µM.

What about the IC50 (second compound 10 µM) of the same compound?
The IC50 was 0.0254 µM.

And the viability, T/C [1]?
Its viability, T/C is 77.7%.

And the viability, T/C [2]?
Its viability, T/C is 49%.

What about the viability, T/C [3] of the same compound?
Its viability, T/C is 26.5%.

And the viability, T/C [4]?
The viability, T/C was 16.8%.

And the viability, T/C [5]?
Its viability, T/C is 13.8%.

What about the viability, T/C [6] of the same compound?
Its viability, T/C is 7.17%.

What about the viability, T/C [7] of the same compound?
The viability, T/C was 69.6%.

And the viability, T/C [8]?
The viability, T/C was 51.4%.

What about the viability, T/C [9] of the same compound?
Its viability, T/C is 28.9%.

What about the viability, T/C [10] of the same compound?
The viability, T/C was 15.1%.

What about the viability, T/C [11] of the same compound?
Its viability, T/C is 10.3%.

What about the viability, T/C [12] of the same compound?
The viability, T/C was 6.4%.

And the viability, T/C [13]?
The viability, T/C was 71.8%.

What about the viability, T/C [14] of the same compound?
The viability, T/C was 47.3%.

What about the viability, T/C [15] of the same compound?
The viability, T/C was 25.5%.

And the viability, T/C [16]?
Its viability, T/C is 13.7%.

And the viability, T/C [17]?
Its viability, T/C is 11.1%.

What about the viability, T/C [18] of the same compound?
Its viability, T/C is 7.37%.

And the viability, T/C [19]?
Its viability, T/C is 70.7%.

What about the viability, T/C [20] of the same compound?
The viability, T/C was 47.5%.

What about the viability, T/C [21] of the same compound?
The viability, T/C was 24.4%.

What about the viability, T/C [22] of the same compound?
Its viability, T/C is 15.6%.

And the viability, T/C [23]?
Its viability, T/C is 12.2%.

What about the viability, T/C [24] of the same compound?
The viability, T/C was 7.55%.

What about the viability, T/C [25] of the same compound?
The viability, T/C was 74.9%.

What about the viability, T/C [26] of the same compound?
Its viability, T/C is 46.5%.

And the viability, T/C [27]?
Its viability, T/C is 23.6%.

What about the viability, T/C [28] of the same compound?
Its viability, T/C is 15.3%.

What about the viability, T/C [29] of the same compound?
The viability, T/C was 9.78%.

And the viability, T/C [30]?
Its viability, T/C is 5.36%.

How did the IC50 (second compound 0.1 µM) turn out when O=C(C=Cc1cccc(S(=O)(=O)Nc2ccccc2)c1)NO + NC1CCC(NC2CC2c2ccccc2)CC1 was run?
The IC50 was over 3 µM.

And the IC50 (second compound 0.316 µM)?
The IC50 was over 3 µM.

And the IC50 (second compound 1 µM)?
The IC50 was over 3 µM.

What about the IC50 (second compound 3.16 µM) of the same compound?
The IC50 was 0.294 µM.

What about the IC50 (second compound 10 µM) of the same compound?
Its IC50 is 0.895 µM.

And the viability, T/C [1]?
The viability, T/C was 106%.

And the viability, T/C [2]?
The viability, T/C was 112%.

What about the viability, T/C [3] of the same compound?
Its viability, T/C is 88.3%.

And the viability, T/C [4]?
Its viability, T/C is 43.7%.

And the viability, T/C [5]?
The viability, T/C was 16.5%.

And the viability, T/C [6]?
The viability, T/C was 104%.

And the viability, T/C [7]?
Its viability, T/C is 112%.

And the viability, T/C [8]?
The viability, T/C was 104%.

And the viability, T/C [9]?
The viability, T/C was 90.1%.

And the viability, T/C [10]?
The viability, T/C was 46.7%.

What about the viability, T/C [11] of the same compound?
The viability, T/C was 11.5%.

What about the viability, T/C [12] of the same compound?
Its viability, T/C is 98.8%.

And the viability, T/C [13]?
Its viability, T/C is 96.9%.

What about the viability, T/C [14] of the same compound?
The viability, T/C was 97.3%.

And the viability, T/C [15]?
Its viability, T/C is 81.4%.

What about the viability, T/C [16] of the same compound?
The viability, T/C was 53%.

And the viability, T/C [17]?
The viability, T/C was 13%.

What about the viability, T/C [18] of the same compound?
Its viability, T/C is 88%.

And the viability, T/C [19]?
The viability, T/C was 99.4%.

What about the viability, T/C [20] of the same compound?
The viability, T/C was 102%.

And the viability, T/C [21]?
Its viability, T/C is 84.6%.

What about the viability, T/C [22] of the same compound?
Its viability, T/C is 50.1%.

What about the viability, T/C [23] of the same compound?
The viability, T/C was 6.88%.

What about the viability, T/C [24] of the same compound?
The viability, T/C was 89.7%.

What about the viability, T/C [25] of the same compound?
Its viability, T/C is 99.9%.

What about the viability, T/C [26] of the same compound?
Its viability, T/C is 97.2%.

And the viability, T/C [27]?
Its viability, T/C is 79.5%.

And the viability, T/C [28]?
The viability, T/C was 51.5%.

And the viability, T/C [29]?
The viability, T/C was 11.2%.

And the viability, T/C [30]?
The viability, T/C was 88%.
